Source: ChEMBL document CHEMBL1151757, “Synthesis, radiosynthesis, and biological evaluation of fluorine-18-labeled 2beta-carbo(fluoroalkoxy)-3beta-(3'-((Z)-2-haloethenyl)phenyl)nortropanes: candidate radioligands for in vivo imaging of the serotonin transporter with positron emission tomography” (J Med Chem, 2008)

Legend:
Caudate [1] = assay: Drug uptake in anesthetized cynomolgus monkey brain caudate after 27.5 mins postinjection; format: ADME, organism-based, Macaca fascicularis, Caudate nucleus; conditions: in vivo
[2] = Ratio of drug uptake in frontal lobe to cerebellum in anesthetized cynomolgus monkey after 135 mins postinjection; format: ADME, organism-based, Macaca fascicularis; conditions: in vivo, 2.25 h
Pons [3] = assay: Drug uptake in anesthetized cynomolgus monkey brain pons after 2.5 mins postinjection; format: ADME, organism-based, Macaca fascicularis; conditions: in vivo
[4] = Drug uptake in anesthetized cynomolgus monkey brain cerebellum after 6.5 mins postinjection; format: ADME, organism-based, Macaca fascicularis; conditions: in vivo
Pons [5] = assay: Drug uptake in anesthetized cynomolgus monkey brain pons after 22.5 mins postinjection; format: ADME, organism-based, Macaca fascicularis; conditions: in vivo, 0.375 h
Pons [6] = assay: Drug uptake in anesthetized cynomolgus monkey brain pons after 165 mins postinjection; format: ADME, organism-based, Macaca fascicularis; conditions: in vivo, 2.75 h
Medulla [7] = assay: Drug uptake in anesthetized cynomolgus monkey brain medulla after 105 mins postinjection; format: ADME, organism-based, Macaca fascicularis; conditions: in vivo, 1.75 h
Medulla [8] = assay: Drug uptake in anesthetized cynomolgus monkey brain medulla after 3.5 mins postinjection; format: ADME, organism-based, Macaca fascicularis; conditions: in vivo
Putamen [9] = assay: Drug uptake in anesthetized cynomolgus monkey brain putamen after 3.5 mins postinjection; format: ADME, organism-based, Macaca fascicularis; conditions: in vivo
[10] = Drug uptake in anesthetized cynomolgus monkey brain occipital lobe after 35 mins postinjection; format: ADME, organism-based, Macaca fascicularis; conditions: in vivo
[11] = Ratio of drug uptake in thalamus to cerebellum in anesthetized cynomolgus monkey after 135 mins postinjection; format: ADME, organism-based, Macaca fascicularis; conditions: in vivo, 2.25 h
Caudate [12] = assay: Drug uptake in anesthetized cynomolgus monkey brain caudate after 235 mins postinjection; format: ADME, organism-based, Macaca fascicularis, Caudate nucleus; conditions: in vivo
[13] = Drug uptake in anesthetized cynomolgus monkey brain occipital lobe after 65 mins postinjection; format: ADME, organism-based, Macaca fascicularis; conditions: in vivo
Putamen [14] = assay: Drug uptake in anesthetized cynomolgus monkey brain putamen after 45 mins postinjection; format: ADME, organism-based, Macaca fascicularis; parameters: unit not given here; conditions: in vivo, 0.75 h
Medulla [15] = assay: Drug uptake in anesthetized cynomolgus monkey brain medulla after 55 mins postinjection; format: ADME, organism-based, Macaca fascicularis; conditions: in vivo
Thalamus [16] = assay: Drug uptake in anesthetized cynomolgus monkey brain thalamus after 65 mins postinjection; format: ADME, organism-based, Macaca fascicularis; parameters: unit not given here; conditions: in vivo
Putamen [17] = assay: Drug uptake in anesthetized cynomolgus monkey brain putamen after 135 mins postinjection; format: ADME, organism-based, Macaca fascicularis; conditions: in vivo, 2.25 h
[18] = Ratio of drug uptake in occipital lobe to cerebellum in anesthetized cynomolgus monkey after 175 mins postinjection; format: ADME, organism-based, Macaca fascicularis; conditions: in vivo
Putamen [19] = assay: Drug uptake in anesthetized cynomolgus monkey brain putamen after 35 mins postinjection; format: ADME, organism-based, Macaca fascicularis; parameters: unit not given here; conditions: in vivo
[20] = Drug uptake in anesthetized cynomolgus monkey brain frontal lobe after 235 mins postinjection; format: ADME, organism-based, Macaca fascicularis; conditions: in vivo
Thalamus [21] = assay: Drug uptake in anesthetized cynomolgus monkey brain thalamus after 27.5 mins postinjection; format: ADME, organism-based, Macaca fascicularis; parameters: unit not given here; conditions: in vivo
Pons [22] = assay: Drug uptake in anesthetized cynomolgus monkey brain pons after 95 mins postinjection; format: ADME, organism-based, Macaca fascicularis; conditions: in vivo
Pons [23] = assay: Drug uptake in anesthetized cynomolgus monkey brain pons after 1.5 mins postinjection; format: ADME, organism-based, Macaca fascicularis; conditions: in vivo, 0.025 h
Medulla [24] = assay: Drug uptake in anesthetized cynomolgus monkey brain medulla after 65 mins postinjection; format: ADME, organism-based, Macaca fascicularis; conditions: in vivo
Pons [25] = assay: Drug uptake in anesthetized cynomolgus monkey brain pons after 6.5 mins postinjection; format: ADME, organism-based, Macaca fascicularis; conditions: in vivo
Thalamus [26] = assay: Drug uptake in anesthetized cynomolgus monkey brain thalamus after 3.5 mins postinjection; format: ADME, organism-based, Macaca fascicularis; parameters: unit not given here; conditions: in vivo
Thalamus [27] = assay: Drug uptake in anesthetized cynomolgus monkey brain thalamus after 135 mins postinjection; format: ADME, organism-based, Macaca fascicularis; parameters: unit not given here; conditions: in vivo, 2.25 h
Medulla [28] = assay: Drug uptake in anesthetized cynomolgus monkey brain medulla after 75 mins postinjection; format: ADME, organism-based, Macaca fascicularis; conditions: in vivo, 1.25 h
Thalamus [29] = assay: Drug uptake in anesthetized cynomolgus monkey brain thalamus after 45 mins postinjection; format: ADME, organism-based, Macaca fascicularis; parameters: unit not given here; conditions: in vivo, 0.75 h
[30] = Ratio of drug uptake in pons to cerebellum in anesthetized cynomolgus monkey after 0.5 mins postinjection; format: ADME, organism-based, Macaca fascicularis; conditions: in vivo
Putamen [31] = assay: Drug uptake in anesthetized cynomolgus monkey brain putamen after 22.5 mins postinjection; format: ADME, organism-based, Macaca fascicularis; parameters: unit not given here; conditions: in vivo, 0.375 h
Pons [32] = assay: Drug uptake in anesthetized cynomolgus monkey brain pons after 225 mins postinjection; format: ADME, organism-based, Macaca fascicularis; conditions: in vivo, 3.75 h
Putamen [33] = assay: Drug uptake in anesthetized cynomolgus monkey brain putamen after 9.5 mins postinjection; format: ADME, organism-based, Macaca fascicularis; parameters: unit not given here; conditions: in vivo
[34] = Drug uptake in anesthetized cynomolgus monkey brain cerebellum after 1.5 mins postinjection; format: ADME, organism-based, Macaca fascicularis; conditions: in vivo, 0.025 h
Pons [35] = assay: Drug uptake in anesthetized cynomolgus monkey brain pons after 115 mins postinjection; format: ADME, organism-based, Macaca fascicularis; conditions: in vivo
[36] = Ratio of drug uptake in caudate to cerebellum in anesthetized cynomolgus monkey after 9.5 mins postinjection; format: ADME, organism-based, Macaca fascicularis; conditions: in vivo
[37] = Ratio of drug uptake in pons to cerebellum in anesthetized cynomolgus monkey after 18.5 mins postinjection; format: ADME, organism-based, Macaca fascicularis; conditions: in vivo
Thalamus [38] = assay: Drug uptake in anesthetized cynomolgus monkey brain thalamus after 225 mins postinjection; format: ADME, organism-based, Macaca fascicularis; parameters: unit not given here; conditions: in vivo, 3.75 h
[39] = Ratio of drug uptake in midbrain to cerebellum in anesthetized cynomolgus monkey after 125 mins postinjection; format: ADME, organism-based, Macaca fascicularis; conditions: in vivo
Pons [40] = assay: Drug uptake in anesthetized cynomolgus monkey brain pons after 235 mins postinjection; format: ADME, organism-based, Macaca fascicularis; conditions: in vivo
Pons [41] = assay: Drug uptake in anesthetized cynomolgus monkey brain pons after 4.5 mins postinjection; format: ADME, organism-based, Macaca fascicularis; conditions: in vivo, 0.075 h
Caudate [42] = assay: Drug uptake in anesthetized cynomolgus monkey brain caudate after 165 mins postinjection; format: ADME, organism-based, Macaca fascicularis, Caudate nucleus; conditions: in vivo, 2.75 h
Pons [43] = assay: Drug uptake in anesthetized cynomolgus monkey brain pons after 9.5 mins postinjection; format: ADME, organism-based, Macaca fascicularis; conditions: in vivo
Thalamus [44] = assay: Drug uptake in anesthetized cynomolgus monkey brain thalamus after 155 mins postinjection; format: ADME, organism-based, Macaca fascicularis; parameters: unit not given here; conditions: in vivo
[45] = Ratio of drug uptake in putamen to cerebellum in anesthetized cynomolgus monkey after 35 mins postinjection; format: ADME, organism-based, Macaca fascicularis; conditions: in vivo
Midbrain = assay: Drug uptake in anesthetized cynomolgus monkey brain midbrain after 1.5 mins postinjection; format: ADME, organism-based, Macaca fascicularis; parameters: unit not given here; conditions: in vivo, 0.025 h
Thalamus [46] = assay: Drug uptake in anesthetized cynomolgus monkey brain thalamus after 9.5 mins postinjection; format: ADME, organism-based, Macaca fascicularis; parameters: unit not given here; conditions: in vivo
Pons [47] = assay: Drug uptake in anesthetized cynomolgus monkey brain pons after 105 mins postinjection; format: ADME, organism-based, Macaca fascicularis; conditions: in vivo, 1.75 h

O=C(OCC[18F])C1C2CCC(CC1c1cccc(/C=C\I)c1)N2 (stereo not drawn)
Drug uptake (Caudate [1]): 3.39
Ratio [2]: 1.1
Drug uptake (Pons [3]): 0.44
Drug uptake [4]: 2.98
Drug uptake (Pons [5]): 3.05
Drug uptake (Pons [6]): 2.46
Drug uptake (Medulla [7]): 3.58
Drug uptake (Medulla [8]): 1.08
Drug uptake (Putamen [9]): 0.96
Drug uptake [10]: 3.15
Ratio [11]: 1.8
Drug uptake (Caudate [12]): 1.99
Drug uptake [13]: 2.86
Drug uptake (Putamen [14]): 4.41
Drug uptake (Medulla [15]): 3.96
Drug uptake (Thalamus [16]): 4.26
Drug uptake (Putamen [17]): 3.44
Ratio [18]: 1
Drug uptake (Putamen [19]): 4.28
Drug uptake [20]: 1.39
Drug uptake (Thalamus [21]): 4.02
Drug uptake (Pons [22]): 3.05
Drug uptake (Pons [23]): 0.09
Drug uptake (Medulla [24]): 3.97
Drug uptake (Pons [25]): 2.02
Drug uptake (Thalamus [26]): 0.96
Drug uptake (Thalamus [27]): 3.33
Drug uptake (Medulla [28]): 3.78
Drug uptake (Thalamus [29]): 4.3
Ratio [30]: 1.7
Drug uptake (Putamen [31]): 3.96
Drug uptake (Pons [32]): 2.03
Drug uptake (Putamen [33]): 3.07
Drug uptake [34]: 0.11
Drug uptake (Pons [35]): 2.86
Ratio [36]: 0.7
Ratio [37]: 0.7
Drug uptake (Thalamus [38]): 2.29
Ratio [39]: 2
Drug uptake (Pons [40]): 1.97
Drug uptake (Pons [41]): 1.2
Drug uptake (Caudate [42]): 2.56
Drug uptake (Pons [43]): 2.4
Drug uptake (Thalamus [44]): 3.03
Ratio [45]: 1.1
Drug uptake (Midbrain): 0.11
Drug uptake (Thalamus [46]): 3.01
Drug uptake (Pons [47]): 3.01
